Source: US20100130581A1, “COMPOUNDS AND METHODS FOR THE TREATMENT OF PAIN” (THE UNIVERSITY OF QUEENSLAND, priority 2006, published 2010)
Where a SMILES comes first, the peptide text is derived from it. [ ]: non-standard residue; d: D form. ξ: configuration not given here. ξAoc(2) = CCCCCCC(N)C(=O)O

Key:
[1] = In vivo biodistribution of 3H-labelled peptide, intravenous; design: species or system rat; settings: rats, i.v.
Experimental: FIG. 5(a)-(c) are graphical representations showing in vivo bio-distribution of 1 in rats. […] After 15, 30 and 60 minutes, 5 rats were sacrificed and the brain FIG. 5(a), liver FIG. 5(b) and blood FIG. 5(c) of each rat were removed following intravenous administration. The organs were subsequently homogenised in buffer and a sample removed and placed in tissue solubiliser for 3 days. After this time a small sample was removed and treated with bleach over night to remove any colour from the solution and the resulting sample dissolved in scintillation fluid and the radioactivity measured by liquid scintillation. […] The apparent increase in blood levels of the parent peptide after 60 minutes is likely due to the breakdown of the compound and release of the radiolabeled acetate into the blood stream.

[2] = Enzymatic stability study in homogenized Caco-2 cells; format: in vitro ADME; settings: human, pH 7.4; Caco-2 cell homogenate, 37° C., 100 μM
Experimental: (§1) Approximately 1×10^5 cells/mL concentration of cells were seeded onto the 96 well plate. […] The media was changed every other day. 21-28 days old cells were used for the experiments. the media was removed from the wells and each well washed with 100 μL 0.2% EDTA solution followed by washing three times with Hanks' balanced salt solution (HBSS) containing 25 mM Hepes (pH 7.4). Finally, 100 μL of this buffer was placed in each well and the plate cooled in ice. The monolayer of cells in each well was then disrupted by 2×1 second pulses with a Sonics Vibracell ultrasonic processor set at an amplitude of 30. The cell debris was then removed by centrifugation of the plate at 2000 rpm for 5 min. 80 μL cell homogenate supernatant of each well was then transferred to a clean 96 well plate, and 20 μL of HBSS-Hepes was added. Three of the wells' contents were set aside and assayed for total protein content using the Lowry assay. The compounds to be tested were dissolved in HBSS-Hepes buffer to a concentration of 200 μM.
(§2) This assay was performed at 37° C. […] The stability assay on each compound was conducted in triplicate and the concentrations averaged for each time point.

[3] = biological target: T1, μ-opioid receptor (Homo sapiens, UniProt P35372); assay: Whole cell-based binding assay, displacement of 3H-DAMGO
T1 construct: SH-SY5Y cells endogenously expressing μ- and δ-opioid receptors; endogenous in cells; host or cells: SH-SY5Y cells
Experimental: Media was removed and cells were washed with PBS before pre-incubation in 300 μL of binding buffer. Binding studies were performed with 100 μL of appropriate concentrations of ^3H-labeled DAMGO (a selective μ-opioid receptor agonist) and 100 μL of competitor or blank in binding buffer at 37° C. for 60 min. Competition binding experiments were performed using […] of ^3H-labelled DAMGO in the absence or presence of increasing concentrations of unlabeled derivatised endomorphins or derivatised endomorphin analogs. A 1 μM excess of unlabelled DAMGO was used to determine non-specific binding. Following incubation, the cells were washed with PBS and recovered from culture plates using 500 μL of […] before transfer to scintillation vials. Liquid scintillation cocktail (Ultima Gold, Packard, Meriden, USA) was added to these vials for counting in a liquid scintillation analyser. Data are expressed as the mean±SEM of % specific binding of triplicate determinations performed on at least three independent plates of cells. Data were plotted using the one-site competition functions of the PRISM program (Graphpad Inc., San Diego, USA) (see FIGS. 1a, 1b and 7).

[4] = In vivo biodistribution of 3H-labelled peptide, oral; design: species or system rat; settings: rats, oral administration
Experimental: After 15, 30 and 60 minutes, 5 rats were sacrificed and the brain, liver, blood, kidneys, stomach, spleen, small intestine and large intestine were removed following oral administration. The organs were subsequently homogenised in buffer and a sample removed and placed in tissue solubiliser for 3 days. After this time a small sample was removed and treated with bleach over night to remove any colour from the solution and the resulting sample dissolved in scintillation fluid and the radioactivity measured by liquid scintillation.

[5] = system: Caco-2 cells; assay: Caco-2 permeability study
Experimental: Approximately 1×10^6 cells/mL concentration of cells were seeded onto polycarbonate cell culture inserts (Transwell®; 0.45 μm×6.5 mm diameter). DMEM cell culture media was supplemented with 10% FBS, 1% L-glutamine, 1% nonessential amino acids and 1% 100 U/mL penicillin/streptomycin. The media was changed every other day (0.6 mL in the basolateral chamber and 0.1 mL to the apical chamber) and the monolayers were used between days 21-28. Transepithelial electrical resistance (TEER) of the monolayer was measured using the Millicell-ERS system (Millipore Corporation, Bedford, Mass.). C^14-mannitol permeability was used to monitor the integrity of the Caco-2 monolayers.
Prior to beginning the experiments, the monolayers were washed with pre-warmed HBSS-Hepes buffer, incubated for 30 min. At the start of the experiment the apical chamber was emptied and 100 μL of either the derivatised endomorphin or derivatised endomorphin analog solution was added. The permeability study was performed in triplicate at 37° C. shaking in a Heridolf Titramax shaking at 400 rpm. […] Permeability coefficients (Papp) were calculated from data generated by LC/MS quantitative analysis of all samples using a gradient HPLC system (Shimadzu LC-10AT system) coupled to a triple quadrupole mass spectrometer (PE Sciex API 3000) operating in SIM mode with positive ion electrospray. The mobile phase was a mixture of solvent A (0.1% formic acid in water) and solvent B (0.1% formic acid in 90% acetonitrile/water). A C18 column, 5 μM, 50×2.0 mm (Phenomex®) was used at a flow rate 0.3 mL/min with a gradient from 100% A to 90% B in 7 minutes, incorporating a splitter (1:10).
The permeability of the sugars themselves was also examined.

[6] = system: μ- and δ-opioid receptors; assay: Cell based assay of cAMP inhibition in forskolin treated SH-SY5Y cells; settings: for Inhibit c-AMP (%): SH-SY5Y cell line, normalised to the % of cAMP inhibition seen by native endomorphin-1
Experimental: SH-SY5Y cells endogenously expressing μ- and δ-opioid receptors were cultured (100 μl) in a 96 well-plate and incubated (usually overnight) until 80% confluent. Once cells were ready for assay, Endo-1, Endo-2 and derivatives/analogs were diluted in DMEM culture medium containing 30 μM forskolin. The diluted derivatised endomorphins or derivatised endomorphin analogs were then applied to separate wells for agonist studies and co-incubated for antagonist studies. Cells were incubated with derivatised endomorphins or derivatised endomorphin analogs at 37° C. for 30 minutes, medium was aspirated and cells were lysed using lysis buffer from a cAMP Biotrak EIA kit (Amersham, Buckinghamshire, UK). An anti-cAMP antibody was added to the lysate, and the mixture incubated at 4° C. for 2 hours followed by the addition of a cAMP peroxidase conjugate, and incubated at 4° C. for a further hour. A 3,3′5,5′-tetramethylbenzidine (TMB) substrate provided by the Biotrak EIA kit was then incubated with cell lysate for 1 hour and finally 1 […] was added to facilitate a colour change, which is proportional to the amount of cAMP captured. A cAMP standard curve from 0 to 3200 fmol was also generated concurrently. Plates were then read by a plate reader at 450 nm and compared back to the cAMP standard curve. All data are compared to the maximum cAMP response to forskolin and are represented as the mean+/−standard error of three experiments performed in triplicate. All data are plotted using PRISM program (GraphPad, San Diego, Calif.) (see FIGS. 2a and 2b).

[7] = system: homogenate of Caco-2 cells; assay: Enzymatic stability study in homogenized Caco-2 cells; format: in vitro ADME; settings: Caco-2 cell line; graded by number of ♦ (up to 5), key not given
Experimental: as §1, §2

[8] = Plasma stability assay; format: in vitro ADME; settings: male, human, plasma at 37° C.
Experimental: To measure the enzymatic stability of endomorphin-1 analogs in plasma, blood was taken from a healthy volunteer and the blood was centrifuged at 1700 rpm for 30 minutes to remove blood cells. The plasma was placed into a water bath heated at 37° C. and Endomorphin-1 and analog was added to give final concentrations of 0.7 mg/mL. Samples were incubated for varying time periods between 0 and 180 minutes. 50 μL of sample was taken at each time-point and 75 μL of acetonitrile was added to quench any enzyme activity. The samples were then placed on ice and upon completion of the assay, all samples were centrifuged at 9000 rpm for 3 minutes to remove all precipitated plasma proteins. The amount of intact peptide remaining in the supernatent of each sample was determined using RP HPLC by measuring the area under the curve of the peak at the appropriate retention time compared to a standard curve of concentration for each peptide (see FIG. 8).

[9] = Blood plasma concentration after oral gavage; format: in vivo, rat; settings: male rats
Experimental: In another experiment, Lac-endo was fed via oral gavage to male rats and the concentration of the compound in blood plasma measured over time. Sprague-dawley rats (average wt 300 g) were gavaged with 500 μL of a 20 mM Lac-endo or Endomorphin solution in water. Blood samples taken from the tail vein after 30, 60 and 90 min. The blood was centrifuged to remove red blood cells, and in a 100 μL sample of plasma was added to 300 μL of acetonitrile to precipitate proteins. The suspension was centrifuged a second time and the supernatant analysed by LC-MS.

T1 sequence (P35372 whole entry): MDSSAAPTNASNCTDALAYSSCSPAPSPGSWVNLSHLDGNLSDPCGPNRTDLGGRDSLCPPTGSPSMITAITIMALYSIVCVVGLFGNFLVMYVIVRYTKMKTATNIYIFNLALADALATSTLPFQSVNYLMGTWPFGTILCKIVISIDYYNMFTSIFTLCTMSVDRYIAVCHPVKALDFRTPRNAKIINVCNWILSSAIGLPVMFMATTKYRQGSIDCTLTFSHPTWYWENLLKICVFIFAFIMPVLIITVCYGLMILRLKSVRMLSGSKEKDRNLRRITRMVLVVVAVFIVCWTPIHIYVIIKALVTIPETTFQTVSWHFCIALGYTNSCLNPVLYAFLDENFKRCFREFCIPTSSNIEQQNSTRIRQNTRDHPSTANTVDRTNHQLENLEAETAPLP

## CCCCCCC(N)C(=O)N[C@@H](Cc1ccc(O)cc1)C(=O)N1CCC[C@H]1C(=O)N[C@@H](Cc1c[nH]c2ccccc12)C(=O)N[C@@H](Cc1ccccc1)C(N)=O (stereo partly shown) [Compound 1] (H-[ξAoc(2)]YPWF-NH2)
[1]
  accumulation in the liver, in words: accumulate less in the liver than the parent peptide
[1]; after 15 minutes
  label appearing in the brain: > 10%
[2]
  half-life: 25.5 min
[3]
  Ki: 2.45 nM
[3]; displacement of 3H-DAMGO, FIG. 1
  Ki / binding affinity, in words: low nanomolar range
[4]
  delivery to the brain, in words: evidence of delivery of the peptide to the brain
[4]; over the time of the experiment
  increase in serum levels compared to the native peptide: 6 fold
[5]; Caco-2 cell monolayers, compared to parent peptide
  apparent permeability (Papp), in words: significantly improved apparent permeability compared to the parent peptide
[6]
  Inhibit c-AMP (%): 97%

## NC(=O)[C@H]1O[C@@H](NC(=O)[C@H](Cc2ccccc2)NC(=O)[C@H](Cc2c[nH]c3ccccc23)NC(=O)[C@@H]2CCCN2C(=O)[C@@H](N)Cc2ccc(O)cc2)[C@H](O)[C@@H](O)[C@@H]1O [Compound 18]
[7]
  Enzymatic stability 2 h: ♦
[5]; Caco-2 cell line, graded by number of ♦ (up to 5), key not given
  Permeability: ♦

## Cc1cc(O)cc(C)c1C[C@H](N)C(=O)N1CCC[C@H]1C(=O)N[C@@H](Cc1c[nH]c2ccccc12)C(=O)N[C@@H](Cc1ccccc1)C(N)=O [(Dmt^1)Endo, reference compound]
[2]
  half-life at 100 μM: 8.98 min
[7]
  Enzymatic stability 2 h: ♦
[3]
  Ki: 0.058 nM
[6]; Efficacy SH-SY5Y cell line
  IC50: 0.156 nM
[6]
  Inhibit c-AMP (%): 160%
[8]
  half-life at 0.7 mg/mL: 4.18 min

## NC(=O)[C@H](Cc1ccccc1)NC(=O)[C@H](Cc1c[nH]c2ccccc12)NC(=O)[C@@H]1CCCN1C(=O)[C@H](Cc1ccc(O)cc1)NC(=O)CCC(=O)N[C@@H]1O[C@H](CO)[C@@H](O[C@@H]2O[C@H](CO)[C@H](O)[C@H](O)[C@H]2O)[C@H](O)[C@H]1O [Compound 12]
[9]; Sprague-Dawley, rat, plasma, 10 µmol/rat, read-out: time of highest recorded concentration in blood (converted)
  Tmax: 60 min
[9]; 500 μL of 20 mM solution
  absorption across the GI tract, in words: significant absorption of the compound across the GI tract
[5]; Caco-2 monolayers, 20 mM galactose
  absorption of Lac-endo in presence of galactose: some inhibition of absorption but less than lactose
[5]; Caco-2 monolayers, 20 mM glucose
  absorption of Lac-endo in presence of glucose: doesn't inhibit the absorption
[5]; Caco-2 monolayers, 20 mM lactose
  absorption of Lac-endo in presence of lactose: severely inhibits the absorption
